Source: US11958821B2, “Phenethylamine compounds salts, polymorphic forms and methods of use thereof” (Terran Biosciences Inc., priority 2021, dated 2024)

How the values were obtained:
[1] = tested on: Male Sprague-Dawley rats; assay: Rat elevated zero-maze study with racemic MDE, R-MDE, S-MDE and chlordiazepoxide; conditions: for Percentage of time spent in the open arms (% TO), significance vs placebo / Percentage of time spent in the open arms (% TO), trend: 2.5-30 mg/kg ip
Protocol: A reduction in the amount of activity on the open areas is considered to reflect an increase in anxiety. The ethologically-based behavior, stretched attend postures (SAP) from closed to open quadrants, is assessed as an index of anxiety. […] Animals
Male Sprague-Dawley 200-250 g (Envigo UK) rats were used. Animals were group-housed (5 per cage; cage size: 40×40×20 cm) in a temperature-controlled environment (22±2° C.), under a 12 h light-dark cycle (lights on: 08:00 hours) for one week prior to testing. Food and water were freely available. Number of animals per group=5.
The elevated 0-maze comprises a black Perspex annular platform (105 cm diameter, 10 cm width) elevated to 65 cm above ground level, divided equally into four quadrants. Two opposite quadrants are enclosed by clear red Perspex walls (27 cm high) on both the inner and outer edges of the platform, while the remaining two opposite quadrants are surrounded only by a Perspex “lip” (1 cm high) which serves as a tactile guide to animals on these open areas.
Subjects were weighed and tail marked before being injected. After a specified pretreatment time, subjects were placed in a closed quadrant and a 5-min test period were recorded on videotape for subsequent analysis. The maze was cleaned with 5% methanol/water solution and dried thoroughly between test sessions. Behavioural measures comprise percentage time spent on the open areas (% TO) and frequency of stretched attend postures (SAP) from closed to open quadrants. Animals are scored as being in the open area when all four paws were in an open quadrant and in the closed area only when all four paws have passed over the open-closed divide.
Thirty min later at T=0, rats were individually placed in a closed arm of the zero-maze and behavior was assessed by a “blind” observer using remote video monitoring over the subsequent 5 min. The animal was then removed and the maze carefully wiped with 5% methanol/water solution before the next test was begun.
Thirty min later at T=0, rats were individually placed in a closed arm of the zero-maze and behavior assessed by a “blind” observer using remote video monitoring over the subsequent 5 min. The animal was then removed and the maze carefully wiped with 5% methanol/water solution before the next test was begun.

[2] = tested on: participants diagnosed with at least moderate post-traumatic stress disorder (PTSD); assay: Double-blind, randomized, placebo-controlled clinical trial of MDE-assisted psychotherapy in PTSD; format: in vivo, human; conditions: for Daytime sleepiness (ESS) / Clinician-rated functional impairment score (SDS) / Depression (HAM-D) / Change in CAPS-5 assessment: Study Conclusion; for Clinician-rated functional impairment score (SDS) / Depression (HAM-D) / Change in CAPS-5 assessment: vs placebo; for Change in CAPS-5 assessment: hydrochloride salt with psychotherapy; for Total dosage of drug to achieve significant mean reduction in CAPS-5: vs racemic MDE-treated subgroup
Protocol: A multicenter, randomized, double-blind, placebo-controlled trial is conducted to assess the efficacy and safety of MDE-assisted psychotherapy versus psychotherapy with placebo control in participants diagnosed with at least moderate post-traumatic stress disorder (PTSD).
This multicenter, randomized, double-blind, placebo-controlled trial is conducted at various sites in the United States with IRB approval from each study site. A flexible dose of MDE hydrochloride salt or placebo, followed by a supplemental half-dose unless contraindicated by patient's previous response or medical history, is also administered during the Treatment Period with psychotherapy in at least 3 blinded monthly Experimental Sessions. The Supplemental Dose extends the duration of drug effects on the participants during an Experimental Session. MDE test groups are further subdivided into specific groups receiving only racemic MDE hydrochloride salt, S-MDE hydrochloride salt, or R-MDE hydrochloride salt. An optional Risk Evaluation and Mitigation Strategy (REMS) Protocol may be implemented for the racemic MDE, R-MDE, and placebo-groups. The Treatment Period lasts for approximately 12 weeks. During the Treatment Period, each Experimental Session is followed by three Intervening Sessions of non-drug psychotherapy. Each Experimental Session involves an overnight stay. The Primary Outcome measure, the change in Clinician Administered PTSD Scale for DSM-5 (CAPS-5), is determined by a blinded Independent Rater (IR) pool multiple times throughout the study. The study consists of separate periods for each participant. Initially, prospective participants undergo a Screening Period involving an initial eligibility assessment, a medical history intake, informed consent, and enrollment of eligible participants. Next, a Preparation Period is undertaken for enrolled participants involving medication tapering and clinical baseline assessments to confirm each participant meets enrollment criteria. As part of the Preparation Period, a detailed assessment of co-morbidities to PTSD is recorded. Participants may remain on prescribed courses of selective serotonin reuptake inhibitor (SSRI) or serotonin and norepinephrine reuptake inhibitor (SNRI) treatment. Dosages and/or frequency of administration of a prescribed SSRI or SNRI may be adjusted to fit within study parameters. Participants may be required to taper a prescribed course of medication in order to maintain eligibility within the study. The Treatment Period consists of three monthly Experimental Sessions and associated Intervening Sessions of integrative behavioral psychotherapy. The Treatment Period lasts approximately 12 weeks. Following the Treatment Period is a Follow-up Period and Study Conclusion. During the Follow-up Period and Study Conclusion, participants complete 4 weeks with no study visits, followed by a Study Conclusion visit.
This study compares the effects of three blinded Experimental Sessions of psychotherapy in combination with flexible doses of MDE or placebo administered as described below. Non-drug preparatory and intervening psychotherapy sessions are also included. Patient's weight is determined for dosage calculation. Initial dose is 100 mg unless this will result in a dosage of less than 1.5 mg/kg of patient weight. Initial dose thereby adjusted upward in 25 mg increments to deliver the lowest dose possible of at least 1.5 mg/kg of patient weight. Initial dose for Experimental Session 2 and 3 is cumulative dose calculated by adding the initial dose plus REMS protocol dose used the previous Experimental Session for each patient.
Randomization occurs prior to the initiation of Experimental Session 1. Each participant is provided the next randomized number in a sequence by a blinded study monitor. Participants are then randomized, according to a computer-generated randomization schedule, 1:1:1:1 to racemic MDE, S-MDE, R-MDE, or placebo. […]

[3] = Dynamic vapor sorption (DVS) analysis with post-DVS XRPD; format: physicochemical
Protocol: DVS analysis was carried out using a TA Instruments Q5000 Dynamic Vapor Sorption analyzer. The instrument was calibrated with standard weights and a sodium bromide standard for humidity. Approximately 5-25 mg of sample was loaded into a metal-coated quartz pan for analysis. The sample was analyzed at 25° C. with a maximum equilibration time of one hour in 10% relative humidity (RH) steps from 5 to 95% RH (adsorption cycle) and from 95 to 5% RH (desorption cycle). The movement from one step to the next occurred either after satisfying the equilibrium criterion of 0.01% weight change or, if the equilibrium criterion was not met, after one hour. The percent weight change values were calculated using Microsoft Excel®.

[4] = highest dose, ip, 30 min before 5-min test

Structure (SMILES) | Frequency of stretched attend postures (SAP) ([1]; 2.5 mg/kg ip) | Frequency of stretched attend postures (SAP) ([1]; 5 mg/kg ip) | Frequency of stretched attend postures (SAP) ([1]; 10 mg/kg ip) | Frequency of stretched attend postures (SAP) ([1]; 15 mg/kg ip) | Frequency of stretched attend postures (SAP) ([1]; 30 mg/kg ip) | Percentage of time spent in the open arms (% TO), significance vs placebo [1] | Percentage of time spent in the open arms (% TO), trend [1] | Frequency of stretched attend postures (SAP) [1, 4] | Daytime sleepiness (ESS) [2] | Clinician-rated functional impairment score (SDS) [2] | Depression (HAM-D) [2] | Change in CAPS-5 assessment [2] | Hygroscopicity by DVS ([3]; 25° C., 5 to 95% RH, listed as MBDB Maleate Form 1) | DVS weight gain ([3]; at 95% RH) [%] | Post-DVS XRPD (form change) ([3]; solids after DVS analysis) | Total dosage of drug to achieve significant mean reduction in CAPS-5 [2] | Percentage of time spent in the open arms (% TO) ([1]; 15 mg/kg ip) | Frequency of stretched attend postures (SAP) ([1]; 20 mg/kg ip) | Frequency of stretched attend postures (SAP) ([1]; any dose vs placebo) | Adverse anxiogenic incidents ([2]; vs placebo-treated controls)
CCNC(C)Cc1ccc2c(c1)OCO2 (racemic) [racemic MDE, N-ethyl-3,4-methylenedioxyamphetamine] | significant increase in SAPs | did not show any difference from placebo | dose dependent decrease in SAPs and a significant anxiolytic effect | dose dependent decrease in SAPs and a significant anxiolytic effect | dose dependent decrease in SAPs and a significant anxiolytic effect | did not show significant changes when compared to placebo | trended towards reduced time in the open arms | decreased the frequency of SAPs as effectively as the benzodiazepine chlordiazepoxide | significant improvement in lessening daytime sleepiness | significant improvement in clinician-rated functional impairment score | significant improvement depression | significant mean reduction in CAPS-5 assessment compared to the placebo group | – | – | – | – | – | – | – | –
CCC(Cc1ccc2c(c1)OCO2)NC.O=C(O)/C=C\C(=O)O (stereo not drawn) [MBDB maleate Form 1] | – | – | – | – | – | – | – | – | – | – | – | – | slightly hygroscopic | 0.6 | no form change | – | – | – | – | –
CCN[C@H](C)Cc1ccc2c(c1)OCO2 [R-MDE, (R)—N-ethyl-3,4-methylenedioxyamphetamine] | increase in the number of SAPs at the 2.5 mg/kg dose which trended towards significance | increase in SAPs at the 5 mg/kg dose range as well which trended toward significance | not significantly different from placebo | not significantly different from placebo | significant reduction in SAPs | did not show significant changes when compared to placebo | trended towards reduced time in the open arms | decreased the frequency of SAPs as effectively as the benzodiazepine chlordiazepoxide | significant improvement in lessening daytime sleepiness | significant improvement in clinician-rated functional impairment score | significant improvement depression | significant mean reduction in CAPS-5 assessment compared to the placebo group | – | – | – | lower total dosage of drug compared to the racemic MDE-treated subgroup | – | – | – | –
CCN[C@@H](C)Cc1ccc2c(c1)OCO2 [S-MDE, (S)—N-ethyl-3,4-methylenedioxyamphetamine] | – | significantly decreased the number of SAPs | significantly decreased the number of SAPs | significantly decreased the number of SAPs | – | did not show significant changes when compared to placebo | – | decreased the frequency of SAPs as effectively as the benzodiazepine chlordiazepoxide | significant improvement in lessening daytime sleepiness | significant improvement in clinician-rated functional impairment score | significant improvement depression | significant mean reduction in CAPS-5 assessment compared to the placebo group | – | – | – | lower total dosage of drug compared to the racemic MDE-treated subgroup | large numerical increase in time in the open arms | significantly decreased the number of SAPs | did not increase the number of SAPs beyond placebo at any dose | without a significant increase in adverse anxiogenic incidents
